Test results reported in patent US20250375416A1, “SERINE PROTEASE INHIBITORY EFFECTS OF HEALTH SUPPLEMENTS IN HUMAN CANCEROUS CELL LINES” (priority 2022, published 2025).

Key:
Trypsin = molecular target: T1, Trypsin (Sus scrofa, UniProt P00761); experiment: Trypsin inhibition by health supplements in confluent A549 cells (cell detachment, crystal violet staining, microscopy); format: cell-based; conditions: for concentration at end point dilution of trypsin inhibition: FIG. 11, 0.125% trypsin, serial dilutions in 24 well plate; for concentration at end point of trypsin inhibitory effects: FIG. 13, cell morphology under microscope vs cell and trypsin control
T1 construct: purchased Gibco Lot no-2455123
T1 sequence (P00761 9-231): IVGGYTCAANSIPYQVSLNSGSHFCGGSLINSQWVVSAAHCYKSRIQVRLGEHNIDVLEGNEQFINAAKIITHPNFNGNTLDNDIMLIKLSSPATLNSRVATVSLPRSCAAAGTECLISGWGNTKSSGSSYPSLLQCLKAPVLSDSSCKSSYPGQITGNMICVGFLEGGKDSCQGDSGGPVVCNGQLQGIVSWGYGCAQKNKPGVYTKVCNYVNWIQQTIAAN
Method: In a preferred embodiment, supplements are diluted two to five-fold dilutions (where ever necessary) in PBS (pH 7.4) either as single component and/or various combinations and tested in cell lines grown in either 6, 12, 24 and/or 48 well plates. Cell (CC) and trypsin control (TC) were kept as protease negative and positive indicators in every experiment. Trypsin-EDTA (Gibco Lot no-2455123, Canada) was added into all wells (0.125%) expect cell control wells.
(§1) Fluids from the plate was discarded and washed twice with PBS. Following wash the plate was stained with 1% crystal violet in […] at room temperature for 5 minutes. Following incubation, crystal violet from each well was discarded and washed two to three times with PBS and removed any excess dye from each well.
(§2) Health supplements were collected from pharmaceutical laboratory and were randomly screened in one of the lungs cancer cell lines called A549 for their protease inhibitory effects. Cells were cultivated in 6 well plate using standard technique until confluent. Once the plate is ready, culture media from each well were removed and washed two times with PBS. Following wash, 500 μl of supplements at appropriate dilutions were added into well followed by 500 μl of trypsin (0.25%) to each well except the well having cell control (CC). Plate was incubated at 37° C. and checked at every 5 minutes to see the effect of trypsin on cell morphology. Once cells in trypsin control well lift off from the surface, discard fluid from all wells, wash two times with PBS and stained cells by 1% crystal violet (in alcohol) for two-three minutes. Following staining wells were washed 2-3 times with PBS in order to remove excess dye and finally checked the cell morphology using inverted microscope as well as by naked eye (FIG. 7, 8).
A further experiment was conducted using serine proteases (Trypsin and Elastase) against two formulations of health supplements such as Vitamin C and combination Vitamins C (PC Drug Center Ltd, Bangkok, Thailand) with Thiamine (B1-Roche, lot no: 8077395)) and Pyridoxine (B6, Roche, lot no: 8079496). This formulation of three vitamins is designed as tbc and experiment was conducted in six well plate with confluent A549 cells using technique described in [0044].
The end point of trypsin inhibition of each supplement was calculated in terms of μg/ml. The cell morphologies were also observed by under inverted microscope (4×10) and are shown FIG. 12-15.

Elastase = molecular target: T2, Elastase (Sus scrofa, UniProt P00772); experiment: Elastase inhibition by health supplements in confluent A549 cells (cell detachment, crystal violet staining, microscopy); format: cell-based
T2 construct: purchased SIGMA E017-5 mg
T2 sequence (P00772 27-266): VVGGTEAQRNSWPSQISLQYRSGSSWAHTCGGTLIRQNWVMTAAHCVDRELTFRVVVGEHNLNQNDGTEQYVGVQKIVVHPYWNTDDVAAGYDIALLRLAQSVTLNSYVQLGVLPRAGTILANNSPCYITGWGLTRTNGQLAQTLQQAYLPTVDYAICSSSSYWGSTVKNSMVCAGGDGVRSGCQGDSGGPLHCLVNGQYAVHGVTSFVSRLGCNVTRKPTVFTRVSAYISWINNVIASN
Method: as §1
In a solution of the preferred inhibitor of the present invention in which the inhibitor and trypsin are present in a concentration greater 0.355 mM verses 0.524 mM such inhibitor would react >95% of an equivalent molecular amount of trypsin.
as §2, with “Following staining wells were washed 2-3 times with PBS in order to remove excess dye and finally checked the cell morphology using inverted microscope as well as by naked eye (FIG. 7, 8).” left out

[1] = FIG. 12, trypsin at 1.25% concentration, microscopy

Cc1ncc(C[n+]2csc(CCO)c2C)c(N)n1 [B1, Thiamine]
concentration at end point dilution of trypsin inhibition (Trypsin): 1.0%
concentration at end point of trypsin inhibitory effects (Trypsin): 1.0%

Cc1ncc(CO)c(CO)c1O [B6, Pyridoxine]
concentration at end point dilution of trypsin inhibition (Trypsin): 0.5%
concentration at end point of trypsin inhibitory effects (Trypsin): 0.5%

O=C1O[C@H]([C@@H](O)CO)C(O)=C1O [vitamin C, Ascorbic acid]
inhibition of enzymatic activities of Elastase (E) (Elastase; FIG. 7, A549 cells, compared with cell control (CC) and elastase control (EC)): showed inhibitions of enzymatic activities
level of inhibition against elastase (Elastase; FIG. 9, A549, six well plate, 0.5% elastase, Ascorbic acid 2.5% alone or tbc (Ascorbic acid 2.5%, Thiamine 0.1%, Pyridoxine 0.15%)): good level of inhibition
inhibition of enzymatic activities of Trypsin (T) (Trypsin; FIG. 7, A549 cells, compared with cell control (CC) and trypsin control (TC)): showed inhibitions of enzymatic activities
level of inhibition against trypsin (Trypsin; FIG. 9, A549, six well plate, 1.25% trypsin, Ascorbic acid 2.5% alone or tbc (Ascorbic acid 2.5%, Thiamine 0.1%, Pyridoxine 0.15%)): good level of inhibition

O=C1O[C@H]([C@@H](O)CO)C(O)=C1O [AC-1, Ascorbic acid]
concentration at end point dilution of trypsin inhibition (Trypsin): 0.25%
concentration efficiently neutralizing catalytic activities of trypsin (Trypsin; [1]): 0.25%
concentration from which capability of neutralization of trypsin starts to be lost (Trypsin; [1]): 0.125%
